In patent publication US10995068B2, “Synthetic sphingolipid-like molecules, drugs, methods of their synthesis and methods of treatment” (The Regents of the University of California, priority 2015, dated 2021):
One block for each compound: values may come before it.

Columns and labels:
PIKfyve = molecular target: T1, PIKfyve (Homo sapiens, UniProt Q9Y2I7); test: PIKfyve in vitro kinase assay; assay type: biochemical; conditions: FLAG-PIKfyve
T1 construct: made in house; host or cells: HEK293T cells
T1 sequence (Q9Y2I7 whole entry, species assumed): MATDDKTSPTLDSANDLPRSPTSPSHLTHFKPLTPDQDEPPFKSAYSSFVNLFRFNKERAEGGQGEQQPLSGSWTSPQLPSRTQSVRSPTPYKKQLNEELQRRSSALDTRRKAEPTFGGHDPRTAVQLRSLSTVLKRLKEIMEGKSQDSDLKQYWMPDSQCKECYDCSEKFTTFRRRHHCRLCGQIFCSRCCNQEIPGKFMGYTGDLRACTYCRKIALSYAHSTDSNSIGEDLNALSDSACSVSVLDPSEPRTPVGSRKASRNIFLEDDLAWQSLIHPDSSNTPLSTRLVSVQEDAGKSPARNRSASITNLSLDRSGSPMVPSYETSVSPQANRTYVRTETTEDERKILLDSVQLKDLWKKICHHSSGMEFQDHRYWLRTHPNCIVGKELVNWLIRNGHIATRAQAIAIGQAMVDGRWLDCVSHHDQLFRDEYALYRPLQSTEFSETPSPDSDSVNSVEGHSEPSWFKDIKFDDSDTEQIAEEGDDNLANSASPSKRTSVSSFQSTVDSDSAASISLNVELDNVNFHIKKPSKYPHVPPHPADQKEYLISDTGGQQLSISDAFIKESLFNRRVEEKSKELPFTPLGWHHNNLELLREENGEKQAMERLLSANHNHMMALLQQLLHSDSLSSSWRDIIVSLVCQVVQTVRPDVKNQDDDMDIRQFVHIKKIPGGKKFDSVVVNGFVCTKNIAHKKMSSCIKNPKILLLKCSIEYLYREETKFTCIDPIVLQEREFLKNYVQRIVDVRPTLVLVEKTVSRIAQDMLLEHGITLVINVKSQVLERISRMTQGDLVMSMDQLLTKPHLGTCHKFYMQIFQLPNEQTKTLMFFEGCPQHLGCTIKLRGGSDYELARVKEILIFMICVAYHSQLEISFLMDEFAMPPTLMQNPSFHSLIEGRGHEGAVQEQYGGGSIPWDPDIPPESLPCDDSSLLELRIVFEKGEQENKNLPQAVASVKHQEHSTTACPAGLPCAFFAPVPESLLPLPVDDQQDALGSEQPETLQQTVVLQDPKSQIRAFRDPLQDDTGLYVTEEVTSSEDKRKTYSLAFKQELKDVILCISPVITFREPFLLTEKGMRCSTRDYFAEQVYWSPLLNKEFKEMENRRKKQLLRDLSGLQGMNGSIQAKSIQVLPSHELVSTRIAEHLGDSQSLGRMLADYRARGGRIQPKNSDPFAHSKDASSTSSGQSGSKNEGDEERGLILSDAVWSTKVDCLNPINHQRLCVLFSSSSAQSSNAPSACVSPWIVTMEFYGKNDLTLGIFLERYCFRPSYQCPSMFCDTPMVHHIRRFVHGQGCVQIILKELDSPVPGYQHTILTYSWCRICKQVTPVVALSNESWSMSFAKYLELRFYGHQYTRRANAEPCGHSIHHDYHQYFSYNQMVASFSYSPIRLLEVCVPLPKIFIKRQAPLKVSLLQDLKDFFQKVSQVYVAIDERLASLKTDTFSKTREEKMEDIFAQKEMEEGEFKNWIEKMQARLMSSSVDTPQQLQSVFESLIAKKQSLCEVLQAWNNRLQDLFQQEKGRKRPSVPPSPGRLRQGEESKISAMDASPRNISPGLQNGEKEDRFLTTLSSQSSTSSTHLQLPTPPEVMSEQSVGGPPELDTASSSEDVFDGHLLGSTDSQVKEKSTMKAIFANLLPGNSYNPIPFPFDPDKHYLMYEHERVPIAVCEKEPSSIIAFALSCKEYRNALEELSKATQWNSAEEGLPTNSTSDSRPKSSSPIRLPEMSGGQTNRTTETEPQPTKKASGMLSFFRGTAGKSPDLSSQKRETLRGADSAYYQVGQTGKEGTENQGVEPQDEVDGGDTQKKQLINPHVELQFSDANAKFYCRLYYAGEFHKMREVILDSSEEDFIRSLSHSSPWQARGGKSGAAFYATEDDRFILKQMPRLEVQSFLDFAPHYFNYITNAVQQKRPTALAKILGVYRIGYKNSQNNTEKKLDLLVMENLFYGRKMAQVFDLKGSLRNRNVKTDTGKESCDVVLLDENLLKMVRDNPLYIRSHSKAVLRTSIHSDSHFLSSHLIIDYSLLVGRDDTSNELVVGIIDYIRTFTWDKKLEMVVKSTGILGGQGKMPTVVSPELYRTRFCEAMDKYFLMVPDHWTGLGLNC
From the text: In certain embodiments of the invention, sphingolipid-like molecules mis-localize PIKfyve preventing its association with TRMPL1 and inducing vacuolation, instead of inhibiting PIKfyve kinase activity. While PIKfyve localized to the limiting membrane of YM201636-induced vacuoles as expected, PIKfyve was present in clumps between vacuoles in FTY720-treated cells (FIGS. 57C and 56F).
PIKfyve in vitro kinase assay. FLAG-PIKfyve was expressed in HEK293T cells, purified with FLAG-beads, and eluted with FLAG peptides. PI3P and phosphatidylserine (C16) liposomes were generated by sonication in 2× lipid mixture buffer [40 mM Tris-HCl (pH 7.4), 200 mM NaCl, 1 mM EGTA] with or without FTY720. FLAG-PIKfyve and lipid mixtures were incubated with Mg^2+-ATP solution [6.5 mM HEPES (pH 7.3), 2.5 mM MnCl2, 10 mM MgCl2, 1 mM β-glycerophosphate, 0.1 mM ATP and [^32P]-γ-ATP] for 15 min at RT. The reaction was stopped by adding 4 M HCl, and phosphoinositides were extracted with methanol/chloroform (1:1). Phosphoinositides were spotted on silica thin-layer chromatography plates and separated with 2 M acetic acid/1-propanol (35:65). Membranes were dried, exposed to a Phospho Imager, and the counts from PI(3,5)P2 spots quantified with ImageQuant.

[1] = Blood chemistry of pDKO mice; assay type: in vivo; conditions: for Alkaline Phosphatase: Means ± SEM, n = 4, in U/L (unit assumed); for Albumin / Globulin / Total Protein: in g/dL (unit assumed); for Blood Urea Nitrogen / Ca^2+ / Cholesterol / P / Total Bilirubin: in mg/dL (unit assumed); for HCO^3−: in mmol/L (unit assumed); for Creatine: unit assumed
Experimental: In vivo studies. Experiments conducted in mice were performed in accordance with the Institutional Animal Care and Use Committee of University of California, Irvine following a power analysis conducted in consultation with the Biostatistics Shared Resource of Chao Family Comprehensive Cancer Center at UCI. Xenografts were produced by injecting 5 million cells subcutaneously in the flank of 10-16 week-old male or female NSG mice. Prostate isografts were produced in the same manner but in male 6-8 wk old C57BL/6 mice. Once tumors reached 100 mm^3, SH-BC-893 was administered by intraperitoneal (i.p.) injection or oral gavage as indicated. Tumor volume was calculated using the formula, volume (mm^3)=length [mm]×(width [mm])^2×0.52; BLI was measured using an IVIS imaging system (Xenogen). To generate pDKO mice on the C57BL6 background, Pten^flox mice (stock No. 0045597) and p53^flox mice (stock No. 008462) were obtained from the Jackson Laboratory and PB-Cre4 mice (strain #01XF5) were obtained from the NCI-Frederick Mouse Repository. Age-matched cohorts of pDKO males were generated by in vitro fertilization executed with the assistance of the Transgenic Mouse Facility at UC Irvine. Treatment was begun at 6-7 wks of age. […] Tumor samples were processed and imaged by the Pathology Research Services Core Facility at UC Irvine. Blood chemistry was analyzed by IDEXX BioResearch and complete blood counts were performed using a Hemavet hematology system.

[2] = tested on: non-transformed and cancer cells; test: Cytosolic vacuolation by SH-BC-893; assay type: cell-based; conditions: both non-transformed and cancer cells
From the text: Certain embodiments of the invention are directed to azacyclic constrained sphingolipid-like molecules to inhibit macropinocytosis and autophagy, consistent with the bioenergetic mechanism. This aspect of the mechanism was unexpected because it was initially believed in that these molecules would only reduce nutrient transporter surface expression. However, considering that Ras activation increases macropinocytosis and autophagy, and the finding that SH-BC-893 was very effective against neoplastic cells with activated Ras led to the hypothesis that azacyclic constrained sphingolipid-like molecules might also affect macropinocytosis and autophagy pathways. […]
Light Microscopy: Brightfield and epifluorescence microscopy were conducted using a Nikon TE2000-S fluorescence microscope; confocal microscopy was performed on a Zeiss LSM780 confocal microscope or Nikon Eclipse Ti spinning disk confocal microscope. […] Co-localization was determined using JACoP plugin in ImageJ software. Macropinocytosis was measured after 16 h incubation in serum-free DMEM. p53−/−; LSL-K-RasG12D MEFs before (LSL) or after (KRasG12D) introduction of Cre were serum starved for 16 h and then treated with macropinocytosis inhibitor 5-(N-ethyl-N-isopropyl) amiloride (EIPA, 75 μM) for 1 h or SH-BC-893 for 6 h. […]

[3] = 60 mg/kg, at sacrifice, in U/L (unit assumed)
[4] = 120 mg/kg, at sacrifice, in U/L (unit assumed)

PIKfyve kinase activity (PIKfyve): did not inhibit PIKfyve kinase activity
Structure (SMILES): CCCCCCCCc1ccc(CCC(N)(CO)CO)cc1.Cl [FTY720, 2-Amino-2-[2-(4-octylphenyl)ethyl]propane 1,3-diol hydrochloride, reference compound]

Structure (SMILES): CCCCCCCCc1ccc([C@H]2CCN[C@@H]2CO)cc1.Cl [Compound 5, (2S,3R)-2-(hydroxymethyl)-3-(4-octylphenyl)Pyrrolidinium chloride]
Glucose ([1]; 60 mg/kg, at sacrifice): 282 ± 24^ | Alkaline Phosphatase ([1]; 60 mg/kg, at sacrifice): 77 ± 7.8 | Creatine Phosphokinase [1, 3]: 5,340 ± 2366 | Serum Glutamic Oxaloacetic Transaminase (Asp aminotransferase) [1, 3]: 640 ± 136 | Serum Glutamic-Pyruvic Transaminase (Ala aminotransferase) [1, 3]: 78 ± 25 | Albumin ([1]; 60 mg/kg, at sacrifice): 3 ± 0.2 | Globulin ([1]; 60 mg/kg, at sacrifice): 2 ± 0.18 | Total Protein ([1]; 60 mg/kg, at sacrifice): 5 ± 0.4 | Blood Urea Nitrogen ([1]; 60 mg/kg, at sacrifice): 19 ± 1.1 | Ca^2+ ([1]; 60 mg/kg, at sacrifice): 10 ± 0.7 | Cholesterol ([1]; 60 mg/kg, at sacrifice): 134 ± 15.8 | P ([1]; 60 mg/kg, at sacrifice): 11 ± 1.0 | Total Bilirubin ([1]; 60 mg/kg, at sacrifice): 0.1 ± 0 | HCO^3− ([1]; 60 mg/kg, at sacrifice): 20 ± 3.2 | Creatine ([1]; 60 mg/kg, at sacrifice): < 0.2 mg/dL | Glucose ([1]; 120 mg/kg, at sacrifice): 307 ± 28^ | Alkaline Phosphatase ([1]; 120 mg/kg, at sacrifice): 83 ± 6.2 | Serum Glutamic Oxaloacetic Transaminase (Asp aminotransferase) [1, 4]: 907 ± 171 | Serum Glutamic-Pyruvic Transaminase (Ala aminotransferase) [1, 4]: 91 ± 17.2 | Albumin ([1]; 120 mg/kg, at sacrifice): 3 ± 0.1 | Globulin ([1]; 120 mg/kg, at sacrifice): 2 ± 0.03 | Total Protein ([1]; 120 mg/kg, at sacrifice): 6 ± 0.2 | Blood Urea Nitrogen ([1]; 120 mg/kg, at sacrifice): 23 ± 1.5 | Ca^2+ ([1]; 120 mg/kg, at sacrifice): 10 ± 0.1 | Cholesterol ([1]; 120 mg/kg, at sacrifice): 107 ± 7.5 | P ([1]; 120 mg/kg, at sacrifice): 13 ± 0.1 | Total Bilirubin ([1]; 120 mg/kg, at sacrifice): 0.2 ± 0.03 | HCO^3− ([1]; 120 mg/kg, at sacrifice): 17 ± 2.8 | Creatine ([1]; 120 mg/kg, at sacrifice): < 0.2 mg/dL | toxicity to the liver or kidneys by blood chemistry at sacrifice ([1]; anti-neoplastic dose): not toxic to the liver or kidneys | cytosolic vacuolation [2]: induced equally striking cytosolic vacuolation
